Assay results as given in PubChem BioAssay (NCI).
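Cells were grown in 96-well plates and exposed to each compound for 48 hours at five concentrations; endpoints were interpolated linearly between bracketing concentrations, or set to the highest concentration if not reached. GI50: concentration for 50% inhibition of growth. TGI denotes the concentration required for complete inhibition of growth.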

Legend:
Experiment in all cases: NCI-60 cell line screen, 48 h
SW-620 colon = test system: SW-620 colon
T-47D breast = test system: T-47D breast
HCT-15 colon = test system: HCT-15 colon
EKVX NSCLC = test system: EKVX NSCLC
786-0 renal = test system: 786-0 renal
SF-268 CNS = test system: SF-268 CNS
UACC-62 melanoma = test system: UACC-62 melanoma
DU-145 prostate = test system: DU-145 prostate
MCF7 breast = test system: MCF7 breast
HS 578T breast = test system: HS 578T breast

SMILES	TGI (SW-620 colon) [µM]	TGI (T-47D breast) [µM]	TGI (HCT-15 colon) [µM]	TGI (EKVX NSCLC) [µM]	TGI (786-0 renal) [µM]	TGI (SF-268 CNS) [µM]	TGI (UACC-62 melanoma) [µM]	TGI (DU-145 prostate) [µM]	TGI (MCF7 breast) [µM]	TGI (HS 578T breast) [µM]	GI50 (T-47D breast) [µM]	GI50 (HCT-15 colon) [µM]	GI50 (EKVX NSCLC) [µM]	GI50 (DU-145 prostate) [µM]	GI50 (HS 578T breast) [µM]	GI50 (SW-620 colon) [µM]	GI50 (SF-268 CNS) [µM]	GI50 (UACC-62 melanoma) [µM]	GI50 (MCF7 breast) [µM]
CC(=O)OCC1OC(n2c(N)c(C#N)c(-c3ccccc3)c(C#N)c2=S)C(OC(C)=O)C(OC(C)=O)C1OC(C)=O (configuration not stated)	> 100	> 100	> 100	> 100	> 86.4	> 77.5	> 100	> 100	> 100	54.1									
CC[N+]1(C)CCC(O)(c2ccc(Cl)cc2)C(C(=O)c2ccc(Cl)cc2)C1 (configuration not stated)		17.8	41.3			58.8	27.9	34.4	2.71	38.3									
Cc1c(-c2cc3n(n2)C(c2cccs2)C(C#N)=C(c2ccccc2)N3)c(=O)n(-c2ccccc2)n1C (configuration not stated)	> 100		> 100	> 100		> 100	> 100		> 100										
COc1ccc(Cc2nc3cc(C(F)(F)F)ccc3n2CCCN(C)C)cc1	44.7	32.3	48.8	65.4		70.9	32.1	40.4	32.3	43.1									
C=C1c2c(cc3c(c2O)c(=O)c2ccccc2n3C)OC1(C)C	> 100		> 100	> 100		> 100	> 100												
O=C1NC2(CCCCC2)N=C2C(Cl)CCCC12Cl (configuration not stated)	> 100	> 100	> 100	> 100	> 100	> 100	> 100	> 100	> 100	> 100									
Cc1nc2c(o1)C(=O)c1ccccc1/C2=N/c1ccccn1	31.6		28.4	41.6	58.7	68.9	34.9		33.9	41.1									
CC(C)OP(=O)(CN(C)/C(F)=N\C(F)(F)F)OC(C)C	> 100	> 100	> 100	> 100	> 100	> 100	> 100	> 100	> 100	> 100									
N#Cc1[nH]c(=O)n(-c2ccc(Cl)cc2)c1N		> 10	> 10	> 10	> 10	> 10	> 10	> 10	> 10	> 10									
O=P(O)(O)C(O)/C=C/c1ccccc1 (configuration not stated)	> 100	> 100	> 100	> 100	> 100	> 100	> 100	> 100	> 100	> 100									
CC(=O)Nc1ccc(CNc2cc(=O)[nH]c(=O)[nH]2)cc1	> 100	> 100	> 100	> 100	> 100	> 100	> 100	> 100	> 100	> 100									
CCOc1ccc2c(c1)/C(=C(\C(Cl)=C(Cl)Cl)[N+](=O)[O-])N2	> 100	> 100	> 100	> 100	> 100	> 100	> 100	> 100	> 100	> 100									
CN1C(c2ccccc2)=CC(=O)C(O)=C(c2ccccc2)S1(=O)=O	> 100	> 100	> 100	> 100	> 100	> 100	> 100	> 100	> 100	> 100									
Cc1cccc(Nc2cn(COCc3ccccc3)c(=O)[nH]c2=O)c1	> 100		> 100	> 100	> 100	> 100	> 100	> 100	> 100	> 100									
CC(=O)O[C@H]1C[C@]2(C)C(CCC3O[C@@]32C)[C@@]2(CC(c3ccoc3)OC2O)[C@@H]1C (some centres not stated)	> 100	> 100	> 100	> 100	> 100	> 100	> 100	> 100	> 100	> 100									
O=C(CSc1nc(=O)[nH]c2nc[nH]c12)Nc1ccccc1	> 100	> 100	> 100	> 100	> 100	> 100	> 100	> 100	> 100	> 100									
Cc1csc2nc(-c3ccc([N+](=O)[O-])cc3)c(/C=N/N=C(N)N)n12		> 100	1.68	2.73	3.24	3.29	3.17	4.3		3.15									
CCc1n[nH]c(=O)n1N1C(=O)C2CC=CCC2C1=O (configuration not stated)	> 100	> 100	> 100	> 100	> 100	> 100	> 100		> 100	> 100									
Cc1ccc(/C=C/C(=O)c2c([O-])on[n+]2-c2ccccc2)cc1		9.49	4.68	14.6	3.78	> 37.5	3.12	8.41	19	> 25.8									
O=C1c2ccccc2-c2nc(-c3cccnc3)cc3c2c1nc1ccccc13	> 100		> 100	> 100	> 100	> 100	> 100	> 100	> 100	> 100									
CCC1CC2CN3CCc4c([nH]c5c(-c6c(OC)ccc7c8c([nH]c67)[C@]6(C(=O)OC)CC7CC(CC)C6N(CC8)C7)c(O)ccc45)[C@](C(=O)OC)(C2)C13 (some centres not stated)	25.6	23	31.4	39.7	28	32.9	29.6	28.4	22.9										
NC(=O)CCC(NCc1c2ccccc2[n+]([O-])c2ccccc12)C(=O)O (configuration not stated)	> 100		> 100	> 100	> 100	> 100	> 100												
CC(C)(C)[Si](C)(C)OCCCC#CCO	> 100		> 100	> 100		> 100	> 100												
CC(NS(C)(=O)=O)c1ccccc1 (configuration not stated)	> 100	> 100	> 100		> 100		> 100	> 100	> 100	> 100									

SMILES	TGI (SW-620 colon) [µM]	TGI (T-47D breast) [µM]	TGI (HCT-15 colon) [µM]	TGI (EKVX NSCLC) [µM]	TGI (786-0 renal) [µM]	TGI (SF-268 CNS) [µM]	TGI (UACC-62 melanoma) [µM]	TGI (DU-145 prostate) [µM]	TGI (MCF7 breast) [µM]	TGI (HS 578T breast) [µM]	GI50 (T-47D breast) [µM]	GI50 (HCT-15 colon) [µM]	GI50 (EKVX NSCLC) [µM]	GI50 (DU-145 prostate) [µM]	GI50 (HS 578T breast) [µM]	GI50 (SW-620 colon) [µM]	GI50 (SF-268 CNS) [µM]	GI50 (UACC-62 melanoma) [µM]	GI50 (MCF7 breast) [µM]
CC(=O)[O-].CC(=O)[O-].O=C(N/N=C/c1cc(Cl)cc(Cl)c1[OH2+])c1ccncc1.[Co+2]	> 100		> 100	> 100	> 100	> 100	> 100												
Cc1ccc2c(c1)NC(=O)CCSSCCC(=O)N2	> 100	> 100	> 100	> 100	> 100	> 100	> 100	> 100		> 100									
CC(=O)c1ccc(Oc2ccc(/C(C)=N\N=C(N)N)cc2)cc1			13.2	16.7		16.1	10.1												
O=C(O)CSc1cc(-c2ccccc2)nc2ccccc12	> 100	> 100	> 100	> 100	> 100	> 100	> 100	> 100		61.4									
O=c1[nH]c2ccc(CC(=S)N3CCOCC3)cc2s1	> 100		> 100	> 100	> 100	> 100	> 100	> 100	> 100	> 100									
CCOP(=O)(/C=C\n1cnc2c(=O)n(C(C)=O)c(N)nc21)OCC	> 100	> 100	> 100	> 100	> 100		> 100	> 100	> 100										
CC(=O)O[C@H]1CC[C@]2(C)[C@H]3CC[C@@H]4[C@H]5[C@H](C(C)C)CC[C@]5(C(=O)OCC(CO)(CO)N=C(N)N)CC[C@@]4(C)[C@]3(C)CC[C@H]2C1(C)C		2.91	3.71	3.53				3.2		5.04	1.51	1.79	1.8	1.7	2.05				
Cc1cc2[nH]c3c(C#N)c(-c4ccccc4)c(N=Nc4cccc(C(F)(F)F)c4)c(=O)n3c2cc1C	> 100	> 100	> 100	> 100	> 100	> 100			> 100										
O=C1OCC(C#Cc2ccccc2)=C1Cl	5.07	30.3	15.7	6.17		72.7	18.8	11.8	> 100	18	12.6	4.36	1.91	1.6	2.46	0.83	6.82	6.21	1.71
O=P(O)(O)C(CSc1ccccc1)P(=O)(O)O	> 100		> 100	> 100		> 100	> 100		> 100										
CC(=O)C1=C(N=[N+]=[N-])c2cccc3cccc(c23)C1=O	55.1	41.2	32	46.3	33.7	75.2	34.2		64.6	80.6									
C1COC(NC(C2CC2)C2CC2)=N1	> 100	> 100	> 100	> 100	> 100		> 100	> 100	> 100	> 100									
COc1cc(OC)c2c(c1OC)OCC(Cc1ccc(O)cc1)C2=O (configuration not stated)	> 25	> 25	> 25		> 25	> 25	> 25	> 25		> 25									
CC[C@@]1(O)C(=O)OCc2c1cc1n(c2=O)Cc2c-1nc1ccccc1c2CC[Si](C)(C)C	> 100	> 27.7	> 100	> 100	< 0.0266		0.176	> 100	> 100	> 100									
N#Cc1c(-c2ccccc2)/c(=C\O)c(=O)n2c1nc1ccccc12	> 100	> 100	> 100	> 100	> 100	> 100	> 100	> 100		91.8									
COc1cccc2cc(C(N)=O)c(=N)oc12	> 100	> 100	> 100	> 100	> 100	> 100	> 100	> 100		97.5									
O=C(NO)c1coc2ccccc2c1=O	> 100		> 100	> 100		> 100	> 100												
C=C(C=O)c1c2c(nc3ccccc13)C(=O)c1ccccc1C2=O		3.29	1.01	3.61	> 100	3.02	2.59	0.982		0.961									
O=C(/C=C/c1ccc(O)c(O)c1)OCCc1cccc2ccccc12	18.9	42.3	9.64		12.7	27	15	18.6	25.7										
CCSC1=N/C(=C\c2ccccc2O)C(Nc2ccc(C)cc2)=N1	> 100	> 100	> 100	> 100	> 100	> 100	> 100	> 100		> 100									
c1ccc(N=C2SC(=NNc3ccccc3)SC2=Nc2ccccc2)cc1	> 100	> 100	> 100	> 100	> 100	> 100	> 100	> 100		> 100									
COc1ccc(/C=C2\CSC/C(=C\c3ccc(OC)c(OC)c3OC)C2=O)c(OC)c1OC	58.6	> 100	74.1	> 100	48.1	> 100	30.4	> 100	> 100										
N#CCC(=O)Nn1c(CC#N)nnc1Cc1ccccc1	> 100	> 100	> 100		> 100	> 100	> 100	> 100	> 100	> 100									
